According to publication PMC8016481, “Tachykinin signaling inhibits task-specific behavioral responsiveness in honeybee workers” (eLife, 2021):
Entries after “also recorded” stand apart in the source; their conditions may differ.

Assays:
[1] = tested on: TRP2-mediated cAMP accumulation; test: Effect of PTX, CTX, YM-254890 and H89 on TRP2-mediated cAMP accumulation, HEK293 cells expressing TRPR; type: cell-based, Homo sapiens; details: TRP2, Control (no inhibitor)
honeybee TRPR [2] = test: Competitive binding of TRPs to TRPR in Sf21 cells (displacement of TAMRA-TRP2/TAMRA-TRP3); parameters: species or system Apis mellifera
honeybee TRPR [3] = test: Competitive binding of TRPs to TRPR in HEK293 cells (displacement of TAMRA-TRP2/TAMRA-TRP3); parameters: species or system Apis mellifera; details: for competitive binding (residual TAMRA-TRP binding): HEK293
TRPR [4] = tested on: TRPR
TRPR [5] = tested on: TRPR; remark: listed apart in the source
TRPR [6] = tested on: TRPR; remark: listed apart in the source
ERK phosphorylation = ERK phosphorylation in brain of worker bees after TRP2 injection or TRP/TRPR knockdown (Western blot); type: in vivo, Apis mellifera ligustica; details: for ERK phosphorylation in brain: 6A
Protocol: Cells were seeded in 24-well plates and starved for 4 hr in serum-free medium to reduce background ERK1/2 activation and eliminate the effects of the change of medium. […] Protein concentration was determined according to the Bradford method using BSA as the standard and the absorption was measured at 595 nm (spectrophotometer DU800, Beckman Coulter, USA), then all the samples were kept in −80°C for further use. For Western blot, equal amounts of total cell lysate (20 μg/lane) were fractionated by SDS-PAGE (10%) and transferred to a PVDF membrane (Millipore, USA) using an iBlot dry blotting system (Invitrogen, USA). The membranes were blocked for 2 hr at room temperature and then incubated with rabbit monoclonal anti-pERK1/2 antibody (Cell Signaling Technology, USA) and anti-rabbit horseradish peroxidase-conjugated secondary antibody (Cell Signaling Technology) according to the manufacturers’ protocols. Antibody reactive bands were visualized using Pierce ECL western blotting substrate (Thermo Fisher Scientific, USA) followed by photographic film exposure. Total ERK1/2 was assessed as a loading control after p-ERK1/2 chemiluminescence detection. Quantification analyses were performed using Gel-Pro Analyzer 4.0 software (Media Cybernetics, USA).
Three independent replicate groups per condition were collected and Western blot analyses were performed: Honeybee brains were carefully dissected and frozen at −80°C until protein extraction. Brain protein extractions were carried out according to our previously described method with some modifications. Briefly, the […] were homogenized with lysis buffer (LB, 8 M urea, 2 M thiourea, 4% CHAPS, 20 mM Tris-base, 30 mM dithiothreitol). The mixture was homogenized for 30 min on ice and sonicated 20 s per 5 min during this time, then centrifuged at 12,000 g and 4°C for 10 min. Ice-cold acetone was added to the collected supernatants, and then the mixture was kept on ice for 30 min for protein precipitation. Subsequently, the mixture was centrifuged at 12,000 g and 4°C for 10 min. The supernatant was discarded and the pellets were resolved in LB and kept at −20°C for further use. Western blot analyses were performed as described in 'TRP/TRPR signaling targets: cAMP, Ca^2+, and ERK' section.

Work on “ALMGFQGVRa [TRP2, honeybee tachykinin-related peptide 2, synthesized by SynPeptide]” yielded a cAMP accumulation ([1]; Suppl.3A, replicate 1) of 9.157, a cAMP accumulation ([1]; Suppl.3A, replicate 2) of 10.923 and a cAMP accumulation ([1]; Suppl.3A, replicate 3) of 10.206. It also gave a cAMP accumulation ([1]; Suppl.3B, replicate 1) of 86.752, a cAMP accumulation ([1]; Suppl.3B, replicate 2) of 90.385 and a cAMP accumulation ([1]; Suppl.3B, replicate 3) of 95.777. The competitive binding (honeybee TRPR [2]; Log (M) -4, replicate 1) was 26.6823, the competitive binding (honeybee TRPR [2]; Log (M) -4, replicate 2) was 24.9306 and the competitive binding (honeybee TRPR [2]; Log (M) -4, replicate 3) was 19.6578. The competitive binding (honeybee TRPR [2]; Log (M) -5, replicate 1) was 24.5134, the competitive binding (honeybee TRPR [2]; Log (M) -5, replicate 2) was 25.2301 and the competitive binding (honeybee TRPR [2]; Log (M) -5, replicate 3) was 28.7532. The competitive binding (honeybee TRPR [2]; Log (M) -6, replicate 1) was 31.3191, the competitive binding (honeybee TRPR [2]; Log (M) -6, replicate 2) was 30.3643 and the competitive binding (honeybee TRPR [2]; Log (M) -6, replicate 3) was 34.3614. For the same substance, the competitive binding (honeybee TRPR [2]; Log (M) -7, replicate 1) was 40.7138, the competitive binding (honeybee TRPR [2]; Log (M) -7, replicate 2) was 35.6042 and the competitive binding (honeybee TRPR [2]; Log (M) -7, replicate 3) was 42.4738. The competitive binding (honeybee TRPR [2]; Log (M) -8, replicate 1) was 59.0125, the competitive binding (honeybee TRPR [2]; Log (M) -8, replicate 2) was 64.4899 and the competitive binding (honeybee TRPR [2]; Log (M) -8, replicate 3) was 60.9813. The competitive binding (honeybee TRPR [2]; Log (M) -9, replicate 1) was 79.5758, the competitive binding (honeybee TRPR [2]; Log (M) -9, replicate 2) was 73.4731 and the competitive binding (honeybee TRPR [2]; Log (M) -9, replicate 3) was 72.5477. The competitive binding (honeybee TRPR [2]; Log (M) -10, replicate 1) was 80.4598, the competitive binding (honeybee TRPR [2]; Log (M) -10, replicate 2) was 86.2073 and the competitive binding (honeybee TRPR [2]; Log (M) -10, replicate 3) was 87.5948. For the same substance, the competitive binding (honeybee TRPR [2]; Log (M) -11, replicate 1) was 96.7722, the competitive binding (honeybee TRPR [2]; Log (M) -11, replicate 2) was 92.2369 and the competitive binding (honeybee TRPR [2]; Log (M) -11, replicate 3) was 91.4817. For the same substance, the competitive binding (honeybee TRPR [2]; Log (M) -12, replicate 1) was 92.3887, the competitive binding (honeybee TRPR [2]; Log (M) -12, replicate 2) was 98.2368 and the competitive binding (honeybee TRPR [2]; Log (M) -12, replicate 3) was 98.3115. For the same substance, the “competitive binding (residual TAMRA-TRP binding)” value (honeybee TRPR [3]; Log (M) -4, replicate 1) was 6.8655, the “competitive binding (residual TAMRA-TRP binding)” value (honeybee TRPR [3]; Log (M) -4, replicate 2) was 5.4421 and the “competitive binding (residual TAMRA-TRP binding)” value (honeybee TRPR [3]; Log (M) -4, replicate 3) was 6.7148. The “competitive binding (residual TAMRA-TRP binding)” value (honeybee TRPR [3]; Log (M) -5, replicate 1) was 5.4278, the “competitive binding (residual TAMRA-TRP binding)” value (honeybee TRPR [3]; Log (M) -5, replicate 2) was 4.8584 and the “competitive binding (residual TAMRA-TRP binding)” value (honeybee TRPR [3]; Log (M) -5, replicate 3) was 7.2943. For the same substance, the “competitive binding (residual TAMRA-TRP binding)” value (honeybee TRPR [3]; Log (M) -6, replicate 1) was 7.7659, the “competitive binding (residual TAMRA-TRP binding)” value (honeybee TRPR [3]; Log (M) -6, replicate 2) was 5.3036 and the “competitive binding (residual TAMRA-TRP binding)” value (honeybee TRPR [3]; Log (M) -6, replicate 3) was 8.6345. The “competitive binding (residual TAMRA-TRP binding)” value (honeybee TRPR [3]; Log (M) -7, replicate 1) was 18.9281, the “competitive binding (residual TAMRA-TRP binding)” value (honeybee TRPR [3]; Log (M) -7, replicate 2) was 12.1701 and the “competitive binding (residual TAMRA-TRP binding)” value (honeybee TRPR [3]; Log (M) -7, replicate 3) was 11.2282. For the same substance, the “competitive binding (residual TAMRA-TRP binding)” value (honeybee TRPR [3]; Log (M) -8, replicate 1) was 39.3417, the “competitive binding (residual TAMRA-TRP binding)” value (honeybee TRPR [3]; Log (M) -8, replicate 2) was 38.9933 and the “competitive binding (residual TAMRA-TRP binding)” value (honeybee TRPR [3]; Log (M) -8, replicate 3) was 33.9876. For the same substance, the “competitive binding (residual TAMRA-TRP binding)” value (honeybee TRPR [3]; Log (M) -9, replicate 1) was 62.0505, the “competitive binding (residual TAMRA-TRP binding)” value (honeybee TRPR [3]; Log (M) -9, replicate 2) was 61.6487 and the “competitive binding (residual TAMRA-TRP binding)” value (honeybee TRPR [3]; Log (M) -9, replicate 3) was 64.6985. The “competitive binding (residual TAMRA-TRP binding)” value (honeybee TRPR [3]; Log (M) -10, replicate 1) was 72.1434, the “competitive binding (residual TAMRA-TRP binding)” value (honeybee TRPR [3]; Log (M) -10, replicate 2) was 80.3662 and the “competitive binding (residual TAMRA-TRP binding)” value (honeybee TRPR [3]; Log (M) -10, replicate 3) was 73.4408. The “competitive binding (residual TAMRA-TRP binding)” value (honeybee TRPR [3]; Log (M) -11, replicate 1) was 96.7383, the “competitive binding (residual TAMRA-TRP binding)” value (honeybee TRPR [3]; Log (M) -11, replicate 2) was 91.1557 and the “competitive binding (residual TAMRA-TRP binding)” value (honeybee TRPR [3]; Log (M) -11, replicate 3) was 93.6625. The “competitive binding (residual TAMRA-TRP binding)” value (honeybee TRPR [3]; Log (M) -12, replicate 1) was 92.6094, the “competitive binding (residual TAMRA-TRP binding)” value (honeybee TRPR [3]; Log (M) -12, replicate 2) was 98.3333 and the “competitive binding (residual TAMRA-TRP binding)” value (honeybee TRPR [3]; Log (M) -12, replicate 3) was 97.4974. For the same substance, the “affinity of TRPR, TRP2 compared with TRP3” value (honeybee TRPR [3]; competitive binding assays, HEK293 and Sf21 cells) was “stronger binding affinity to the receptor TRPR than TRP3; also recorded: higher for TRP2 than for TRP3; also recorded: higher affinity to TRPR”, the “cAMP and Ca2+ signaling, TRP2 compared with TRP3” value (TRPR [4]) was “induced higher cAMP and Ca^2+ signaling than TRP3” and the “increase of cAMP levels” value (TRPR [4]) was “more than 10 fold”. For the same substance, the “time by which ERK phosphorylation is near basal levels” value (TRPR [5]) was no more than 90 min, the “time of maximal ERK phosphorylation” value (TRPR [5]) was 2 min and the “intracellular Ca2+ levels” value (TRPR [6]) was “rose sharply”. For the same substance, the “ERK phosphorylation in brain” value (ERK phosphorylation; NB, replicate 1) was 0.0746, the “ERK phosphorylation in brain” value (ERK phosphorylation; NB, replicate 2) was 0.0650 and the “ERK phosphorylation in brain” value (ERK phosphorylation; NB, replicate 3) was 0.0783. For the same substance, the “ERK phosphorylation in brain” value (ERK phosphorylation; NF, replicate 1) was 0.5050, the “ERK phosphorylation in brain” value (ERK phosphorylation; NF, replicate 2) was 0.5454 and the “ERK phosphorylation in brain” value (ERK phosphorylation; NF, replicate 3) was 0.5933. The “ERK phosphorylation in brain” value (ERK phosphorylation; PF, replicate 1) was 0.2191, the “ERK phosphorylation in brain” value (ERK phosphorylation; PF, replicate 2) was 0.2416 and the “ERK phosphorylation in brain” value (ERK phosphorylation; PF, replicate 3) was 0.2036. For the same substance, the “level of phosphorylated ERK in brain” value (ERK phosphorylation; after injection into NBs, PFs and NFs, vs ddH2O) was “significantly increased”.
